# Measured values reported in patent US4757068A, “Lactams and bicyclic lactams useful as cholecystokinin antagonists” (Merck & Co., Inc., priority 1985, dated 1988).
# Legend:
# [1] = target: CCK receptor; experiment: 125I-CCK-33 receptor binding (pancreas or brain; tissue not stated); conditions: 125I-CCK-33; tissue (rat pancreas or guinea pig brain) not stated; read-out: inhibition of specific 125I-CCK-33 binding, IC50
# Protocol: (§1) CCK-33 was radiolabeled with ^125 I-Bolton Hunter reagent (2000 Ci/mmole) as described by Sankara et al. (J. Biol. Chem. 254: 9349-9351, 1979). Receptor binding was performed according to Innis and Snyder (Proc. Natl. Acad. Sci. 77: 6917-6921, 1980) with the minor modification of adding the additional protease inhibitors, phenylmethane sulfonyl fluoride and o-phenanthroline.
# (§2) Male Sprague-Dawley rats (200-350g) were sacrificed by decapitation. The whole pancreas was dissected free of fat tissue and was homogenized in 20 volumes of ice-cold 50 mM, Tris HCl (pH 7.7 at 25° C.) with a Brinkmann Polytron PT 10. The homogenates were centrifuged at 48,000 g for 10 min. Pellets were resuspended in Tris Buffer, centrifuged as above and resuspended in 200 volumes of binding assay buffer (50 mM Tris HCl, pH 7.7 at 25° C., 5 mM dithriothriethel, 0.1 mM bacitracin, 1.2 mM phenylmethane sulfonyl fluoride, and 0.5 mM phenathroline). […] All assays were run in duplicate or triplicate. The reaction mixtures were incubated at 37° C. for 30 minutes and centrifuged in a Beckman Microfuge (4 minutes) immediately after adding 1 ml of ice-cold incubation buffer. The supernatant was aspirated and discarded, pellets were counted with a Beckman gamma 5000.
# (§3) CCK-33 was radiolabeled and the binding was performed according to the description for the pancreas method with modifications according to Saito et al. (J. Neurochem., 37, 483-490 (1981)).
# (§4) Male Hartley guinea pigs (300-500g) were sacrificed by decapitation and the brains were removed and placed in ice-cold 50 mM, Tris HCl plus 7.58 g/l Tritma-7.4 (pH 7.4 at 25° C.) Cerebral cortex was dissected and used as a receptor source. Each gram of fresh guinea pig brain tissue was homogenized in 10 ml of Tris/Trizma buffer with a Brinkman polytron PT-10. The homogenates were centrifuged at 42,000 g for 15 min. Pellets were resuspended in Tris Buffer, centrifuged as above and resuspended in 200 volumes of binding assay buffer (10 mM HEPES, pH 7.7 at 25° C., 5 mM MgCl2, 1 mM EGTA, 0.4% BSA (bovine serum albumin), and 0.25 mg/ml bacitracin). […] All assays were run in duplicate or triplicate. The reaction mixtures were incubated at 25° C. for 2 hours and centrifuged in a Beckman Microfuge (4 minutes) immediately after adding 1 ml of ice-cold incubation buffer. The supernatant was aspirated and discarded, pellets were counted with a Beckman gamma 5000.
# [2] = test system: CCK receptor; conditions: various members of the cyclic nucleotide class, literature; cited from earlier work
# [3] = target: T1, CCK receptor (Rattus norvegicus, UniProt P30551); experiment: 125I-CCK-33 receptor binding (pancreas or brain; tissue not stated); conditions: added protease inhibitors in binding buffer
# T1 construct: from tissue
# T1 sequence (P30551 1-444): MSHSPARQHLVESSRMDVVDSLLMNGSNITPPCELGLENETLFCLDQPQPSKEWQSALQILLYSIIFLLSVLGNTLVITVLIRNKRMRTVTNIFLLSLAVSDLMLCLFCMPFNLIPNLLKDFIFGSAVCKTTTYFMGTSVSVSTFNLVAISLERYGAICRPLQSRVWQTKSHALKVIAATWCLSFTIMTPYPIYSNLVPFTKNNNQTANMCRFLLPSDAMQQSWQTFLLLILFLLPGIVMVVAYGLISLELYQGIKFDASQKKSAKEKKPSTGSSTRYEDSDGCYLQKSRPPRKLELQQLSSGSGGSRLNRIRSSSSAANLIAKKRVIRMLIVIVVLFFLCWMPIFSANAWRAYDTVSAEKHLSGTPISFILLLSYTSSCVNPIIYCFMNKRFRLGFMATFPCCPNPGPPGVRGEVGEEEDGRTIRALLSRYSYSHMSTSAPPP
# Protocol: as §1, §2, §3, §4
SMILES,IC50 [1] [µM],effect on the 125I-CCK receptor binding assay [3],also measured
"CCOC(=O)C(CCc1ccccc1)NC1CCCC(c2ccccc2)N(CC(=O)OC)C1=O (single isomer, unassigned) [1-Carbomethoxymethyl-3-(1-carbethoxy-3-phenylpropyl)amino-7-phenylperhydroazepin-2-one]",32,–,–
COC(=O)CN1C(=O)C(C)(NC(CCc2ccccc2)C(=O)OC)CCc2ccccc21 (centres unmarked) [1-Carbomethoxymethyl-3-(1-carbomethoxy-3-phenylpropyl)amino-3-methyl homodihydrocarbostyril],72,–,–
CCCC(=O)Nc1nc2c(ncn2[C@@H]2O[C@@H]3COP(=O)(O)O[C@H]3[C@H]2OC(=O)CCC)c(=O)[nH]1 [dibutyryl cyclic GMP],–,–,potency rank among cyclic nucleotide CCK antagonists [2]: most potent
c1cnc2c(c1)ccc1cccnc12 [o-phenanthroline],–,no effect,–
O=S(=O)(F)Cc1ccccc1 [phenylmethane sulfonyl fluoride],–,no effect,–
